From patent publication US20150342195A1, “ANTI-MICROBIAL COMPOSITIONS, PREPARATIONS, METHODS, AND USES” (MYCO SCIENCES LIMITED, priority 2014, published 2015) come the findings set out here.

Converted amounts (≈) assume the structure as drawn. Where only a bound is given, the exact number is not on record here.

What all share (type): cell-based
One experiment has as its system Magnaporthe oryzae. Briefly: microbe, parasite or virus in culture. Conditions: PDA; for IC50: % of composition stock solution / IC50: concentration of copper or zinc in the composition, or phosphorous acid: 4 days; for IC50: concentration of copper or zinc in the composition, or phosphorous acid: Cu—Zn#12: 50% each of elemental copper and zinc.
The subject of a further experiment is Fusarium graminearum. Briefly: microbe, parasite or virus in culture. Conditions: for IC50: % of composition stock solution / IC50: concentration of copper or zinc in the composition, or phosphorous acid: PDA, 3 days; for IC50: concentration of copper or zinc in the composition, or phosphorous acid: Cu—Zn#12: 50% each of elemental copper and zinc; for Potassium sorbate synergy with composition/compound: potassium sorbate and composition/compound both at their IC50 concentrations.

Another experiment has as its system Botrytis cinerea. The experiment in a line: Fungal growth inhibition assay (hyphal growth diameter on PDA). Conditions: for IC50: % of composition stock solution / IC50: concentration of copper or zinc in the composition, or phosphorous acid: PDA, 2 days; for IC50: concentration of copper or zinc in the composition, or phosphorous acid: Cu—Zn#12: 50% each of elemental copper and zinc; for Potassium sorbate synergy with composition/compound: potassium sorbate and composition/compound both at their IC50 concentrations.

The next experiment deals with Rhizoctonia solani. The experiment is described as above. To be noted: for IC50: % of composition stock solution / IC50: concentration of copper or zinc in the composition, or phosphorous acid: PDA, 1 day; for IC50: concentration of copper or zinc in the composition, or phosphorous acid: Cu—Zn# compositions: copper plus zinc; for Potassium sorbate synergy with composition/compound: potassium sorbate and composition/compound both at their IC50 concentrations.

The test system of another experiment is Alternaria alternata. Described as above. Conditions: PDA, 2 days; for IC50: concentration of copper or zinc in the composition, or phosphorous acid: Cu—Zn#12: 50% each of elemental copper and zinc.
In another experiment the test system is Ustilago maydis. Described as above. Also noted: Potassium sorbate synergy with composition/compound: key to the marks not given beside the values. Conditions: for IC50: % of composition stock solution / IC50: concentration of copper or zinc in the composition, or phosphorous acid: PDA, 5 days; for IC50: concentration of copper or zinc in the composition, or phosphorous acid: Cu—Zn#12: 50% each of elemental copper and zinc; for Potassium sorbate synergy with composition/compound: potassium sorbate and composition/compound both at their IC50 concentrations.

A further experiment relates to Aspergillus niger. The experiment is described as above. Conditions: for IC50: % of composition stock solution / IC50: concentration of copper or zinc in the composition, or phosphorous acid: PDA, 6 days; for IC50: concentration of copper or zinc in the composition, or phosphorous acid: Cu—Zn#12: 50% each of elemental copper and zinc; for Potassium sorbate synergy with composition/compound: potassium sorbate and composition/compound both at their IC50 concentrations.

Another experiment has as its system plant pathogenic fungi. Briefly: organism not typed. Conditions: summary of TABLE 8.
The subject of another experiment is Trichophyton rubrum. The experiment in a line: Fungal growth inhibition assay with Trichophyton rubrum. To be noted: PDA, 33° C., 7 days; for T. rubrum IC50 values: Concentration: Cu—Zn#12: 50% each of elemental copper and zinc. As for the experimental part:
To assess the effects of compositions on fungal growth, 10 microliters of the test compositions diluted in sterile distilled water were placed in the wells of a 12-well tissue culture plate and 1 milliliter of liquid PDA was added by pipette to each well. Where multiple samples were added to each well, the 10 microliter drops were kept separate until they were mixed by the addition of hot liquid PDA and the plate was then agitated to evenly distribute the test composition(s) evenly through the agar (distilled water was used as vehicle control) and then the agar was allowed to set. For most strains (see TABLE 2), plugs of agar containing fungal hyphae (2 to 3 millimeters in diameter) from the edge of an established fungal culture were carefully cut out using a scalpel and inserted into holes cut in the centre of the agar in each well of the 12-well plate. With B. cinerea and U. maydis, mature cultures were washed with 3 ml of sterile distilled water and the spore suspensions obtained were adjusted to O.D. (at 600 nanometers) of 1.0 and 1.5, respectively. A small hole (˜1 millimeter) was made in the center of the PDA in each well with a yellow pipette tip and 1.5 microliters of spore suspension was carefully pipetted into the hole. […] To assess the effects of compositions on fungal growth in all experiments, the diameter of the hyphal growth was measured twice at a 90° angle using a ruler and the average diameter in millimeters was calculated. If no fungal growth could be detected by eye, the cultures were observed by phase microscopy (40×) to confirm that there was no growth (NG).
A clinical isolate of T. rubrum (strain 7107996; Phylum: Acomycota) was kindly provided by Dr. Richard Barton, Leeds University, UK. The growth assays with T. rubrum were as described in EXAMPLE 1, except this strain was cultured at 33° C. on PDA for 6 or 7 days when growth was assessed. T. rubrum cultures were maintained on Sabouraud dextrose agar at 33° C.
FIG. 8 is a graph depicting the effects of selected compositions and compounds on the growth of Trichophyton rubrum. The culture period was 7 days. Growth in the control cultures was 20±0 millimeters (mean±SD for 2 experiments).

Experiment [1] deals with Pseudomonas syringae (pv. tomato DC3000). Briefly: Bacterial microplate culture (resazurin MIC). Conditions: 24 hours at 28° C.; highest concentration 400 mg/L (1% of stock solutions). In general terms: The colour change of resazurin is a common sign of viable cells or microbes.
Experiment [2] has as its system Ralstonia solanacearum (strain PSS4 from tomato). Briefly: microbe, parasite or virus in culture. To be noted: 24 hours at 28° C.; highest concentration 400 mg/L (1% of stock solutions).
The test system of experiment [3] is Xanthomonas oryzae (strain Gx0372). The experiment in a line: microbe, parasite or virus in culture. To be noted: 24 hours at 28° C.; highest concentration 400 mg/L (1% of stock solutions).
Experiment [4] relates to Xanthomonas campestris (strain Race 5 from brassica). Briefly: Bacterial microplate culture (resazurin MIC). To be noted: 24 hours at 28° C.; highest concentration 400 mg/L (1% of stock solutions).

Consider `O=S(=O)([O-])[O-].[Cu+2]` [Copper sulfate, copper sulfate], for which the “IC50: % of composition stock solution” value with Magnaporthe oryzae was 0.51 % of composition stock solution; in the experiment with Magnaporthe oryzae (listed as copper sulfate) it was 0.51 % of composition stock solutio; with Fusarium graminearum, 0.22 % of composition stock solution; in the experiment on Fusarium graminearum (listed as copper sulfate) it was 0.22 % of composition stock solutio; in the experiment on Botrytis cinerea, 0.46 % of composition stock solution; in the experiment with Rhizoctonia solani it was 0.39 % of composition stock solution. Besides, the figures for the “IC50: % of composition stock solution” value with Alternaria alternata, in the experiment on Ustilago maydis and in the experiment with Aspergillus niger were 0.44 % of composition stock solution, 0.43 % of composition stock solution and 0.19 % of composition stock solution, respectively. In addition, the “IC50: concentration of copper or zinc in the composition, or phosphorous acid” value (shortened to “IC50: concentration of copper or zinc”) in the experiment on Magnaporthe oryzae was determined as 204 µg/mL; in the experiment with Fusarium graminearum, 88 µg/mL; with Botrytis cinerea, 184 µg/mL; with Rhizoctonia solani, 156 µg/mL; with Alternaria alternata, 176 µg/mL; in the experiment with Ustilago maydis it was 172 µg/mL. Also, the “IC50: concentration of copper or zinc” value in the experiment with Aspergillus niger turned out to be 76 µg/mL. Further, the “Potassium sorbate synergy with composition/compound” value in the experiment with Botrytis cinerea is listed as “++”. Besides, the “fungal strains (of those tested) showing strong synergy with KS” value (“fungal strains” below) in the experiment on plant pathogenic fungi is listed as 6/7. Also, the “T. rubrum IC50 values: % of stock solution” value (from here on “T. rubrum IC50 values: %”) in the experiment on Trichophyton rubrum is on record as 0.20 % of stock solution. In the experiment on Trichophyton rubrum, the “T. rubrum IC50 values: Concentration” value is 80 µg/mL. Besides, the MIC in experiment [1] stood at 100 µg/mL; in experiment [2], 50 µg/mL; in [3], 50 µg/mL; in experiment [4] it was 50 µg/mL.
As to `OP(O)O` [Phosphorous acid, phosphorous acid], the “IC50: % of composition stock solution” value with Magnaporthe oryzae is 0.57 % of composition stock solution; in the experiment with Magnaporthe oryzae (listed as phosphorous acid), 0.57 % of composition stock solutio; with Fusarium graminearum it was 0.39 % of composition stock solution; in the experiment on Fusarium graminearum (listed as phosphorous acid), 0.78 % of composition stock solutio; with Botrytis cinerea, 0.63 % of composition stock solution; in the experiment with Rhizoctonia solani, 0.64 % of composition stock solution. The figures for the “IC50: % of composition stock solution” value with Alternaria alternata, in the experiment with Ustilago maydis and in the experiment on Aspergillus niger were 0.51 % of composition stock solution, 0.75 % of composition stock solution and 0.19 % of composition stock solution, respectively. In addition, the “IC50: concentration of copper or zinc” value in the experiment with Magnaporthe oryzae is 228 µg/mL; in the experiment on Fusarium graminearum, 156 µg/mL; in the experiment with Botrytis cinerea it was 252 µg/mL; in the experiment on Rhizoctonia solani, 256 µg/mL; in the experiment on Alternaria alternata, 204 µg/mL; in the experiment with Ustilago maydis it was 300 µg/mL. Also, the “IC50: concentration of copper or zinc” value in the experiment with Aspergillus niger is 76 µg/mL. In addition, the “Potassium sorbate synergy with composition/compound” value was “+” in the experiment with Botrytis cinerea, “++” with Ustilago maydis and “+” in the experiment on Aspergillus niger. For the same compound, the “fungal strains” value in the experiment on plant pathogenic fungi was 4/7. For the same compound, the “T. rubrum IC50 values: %” value in the experiment with Trichophyton rubrum was 0.05 % of stock solution. The “T. rubrum IC50 values: Concentration” value with Trichophyton rubrum came to 20 µg/mL. The MIC in [1] was 200 µg/mL (≈ 2.44 mM); in experiment [2], 100 µg/mL (≈ 1.22 mM); in experiment [3], 400 µg/mL (≈ 4.88 mM); in experiment [4], >400 µg/mL.
For the compound `O=S(=O)([O-])[O-].[Zn+2]` [Zinc sulfate, zinc sulfate], the “IC50: % of composition stock solution” value in the experiment with Magnaporthe oryzae is recorded as 0.48 % of composition stock solution; in the experiment with Magnaporthe oryzae (listed as zinc sulfate), 0.48 % of composition stock solutio; with Fusarium graminearum, 0.66 % of composition stock solution; in the experiment with Fusarium graminearum (listed as zinc sulfate), 0.66 % of composition stock solutio; in the experiment with Botrytis cinerea it was 0.52 % of composition stock solution; in the experiment on Rhizoctonia solani, 0.33 % of composition stock solution. In addition, the figures for the “IC50: % of composition stock solution” value with Alternaria alternata, with Ustilago maydis and in the experiment with Aspergillus niger were 0.62 % of composition stock solution, 0.56 % of composition stock solution and 0.25 % of composition stock solution, respectively. Also, the “IC50: concentration of copper or zinc” value in the experiment with Magnaporthe oryzae came to 192 µg/mL; in the experiment with Fusarium graminearum, 264 µg/mL; in the experiment with Botrytis cinerea, 208 µg/mL; in the experiment on Rhizoctonia solani, 132 µg/mL; in the experiment with Alternaria alternata, 248 µg/mL; in the experiment on Ustilago maydis, 224 µg/mL. Moreover, the “IC50: concentration of copper or zinc” value in the experiment with Aspergillus niger was determined as 100 µg/mL. In addition, the “Potassium sorbate synergy with composition/compound” value with Fusarium graminearum was “+”; in the experiment on Botrytis cinerea it was “+”; in the experiment with Rhizoctonia solani, “+”; in the experiment on Ustilago maydis, “++”; in the experiment with Aspergillus niger it was “+”. The “fungal strains” value with plant pathogenic fungi is 2 strains. The “T. rubrum IC50 values: %” value with Trichophyton rubrum is recorded as 0.25 % of stock solution. Besides, the “T. rubrum IC50 values: Concentration” value with Trichophyton rubrum was 100 µg/mL. Further, the MIC in experiment [1] was 400 µg/mL; in experiment [2], >400 µg/mL; in [3], 400 µg/mL; in experiment [4], >400 µg/mL.
Consider Potassium phosphite, for which, in the experiment with Magnaporthe oryzae, the “IC50 fold higher than the Cu#, Cu—Zn# or Zn# compositions” value was 13.7 fold. The “IC50: % of composition stock solution” value in the experiment on Magnaporthe oryzae is given as 3.7 % of composition stock solution; in the experiment on Fusarium graminearum, 0.78 % of composition stock solution; in the experiment with Botrytis cinerea it was 0.67 % of composition stock solution; in the experiment with Rhizoctonia solani, 0.93 % of composition stock solution; in the experiment on Alternaria alternata, 1.1 % of composition stock solution; in the experiment on Ustilago maydis, 1.3 % of composition stock solution. Also, the “IC50: % of composition stock solution” value in the experiment with Aspergillus niger was 0.19 % of composition stock solution. The “Potassium sorbate synergy with composition/compound” value in the experiment with Fusarium graminearum is reported as “++”; with Botrytis cinerea, “+”; with Rhizoctonia solani, “++”; with Ustilago maydis, “++”; in the experiment on Aspergillus niger it was “+”. In addition, in the experiment with plant pathogenic fungi, the “fungal strains” value is 2 strains.
